# Literature values in patent US9687433B2, “Anhydrous depigmenting compositions comprising phenolic compounds” (Ecstasy LLC, priority 2015, dated 2017).
# Details: degraded to hydroquinone
smiles,measurement,value
"Oc1ccc(OC2CCCCO2)cc1 (stereo not shown) [deoxyarbutin, 4-[(tetrahydro-2H-pyran-2-yl)oxy] phenol]",stability in aqueous solutions,thermolabile and acid sensitive
